Laboratory results from patent US20060205724A1, “Antagonizing nk-1 receptors inhibits consumption of substances of abuse” (The Regents of the University of California, priority 2002, published 2006).

What was measured:
[1] = tested on: rats; assay: loss of righting reflex (measure of intoxication) in rats administered ethanol; type: in vivo, rat; conditions: rats given 3 g/kg of ethanol; vs vehicle-treated animals
Text: FIG. 1 illustrates the effect of an NK1 receptor antagonist (LY303870) on the loss of righting reflex in rats administrated ethanol at 3 and 4 g/kg. *P<0.05 vs vehicle-treated animals. n=9-10 per group.

[2] = tested on: rat; assay: self-administration of ethanol by a rat (ethanol intake, water intake, ethanol preference); type: in vivo
Text: The graphs show ethanol intake, water intake, and ethanol preference.
FIG. 2 illustrates the effect of administration of the NK1 receptor antagonist LY303870 on self-administration of alcohol by a rat.
Without being bound to a particular theory, it is believed that this effect may be due to failure of WIN 51,708 to cross the blood-brain barrier.

Row | Compound | loss of righting reflex (time the test animals were "drunk") [1] | ethanol preference (ethanol as compared to water) [2] | self-administration of ethanol ([2]; 2.5 mg/kg or greater) | ethanol consumption [2]
1 | COc1ccccc1CN(C[C@@H](Cc1c[nH]c2ccccc12)NC(=O)CN1CCC(N2CCCCC2)CC1)C(C)=O [LY303870] | reduced the time the test animals were “drunk” | reduced preference for ethanol as compared to water | significant reduction in self-administration of ethanol | 
2 | C#C[C@]1(O)CC[C@H]2[C@@H]3CC[C@H]4Cc5nc6nc7ccccc7n6cc5C[C@]4(C)[C@H]3CC[C@@]21C [WIN 51,708] |  | did not alter preference |  | did not have a significant effect
